Assay results as given in ChEMBL document CHEMBL5463725, “Data for DCP probe BAY-277” (2023).
The source made the active and inactive calls. The rule behind the calls is not given here.

Key:
[1] = target: Glutamate receptor 2 (Homo sapiens) (UniProt P42262); experiment: Inhibition of Glutamate, AMPA at 10.0 µM in the Eurofins Panlabs Safety Screen; settings: Rattus norvegicus; Compound concentration 10.0 uM
[2] = target: Dual specificity protein kinase CLK1 (Homo sapiens) (UniProt P49759); experiment: Inhibition of CLK1(h) at 10.0 µM in the Eurofins Kinase panel; settings: Compound concentration 10.0 uM
[3] = target: cGMP-inhibited 3',5'-cyclic phosphodiesterase 3A (Homo sapiens) (UniProt Q14432); experiment: Inhibition of Phosphodiesterase PDE3A at 10.0 µM in the Eurofins Panlabs Safety Screen; settings: Compound concentration 10.0 uM
[4] = target: Glucocorticoid receptor (Homo sapiens) (UniProt P04150); experiment: Inhibition of Glucocorticoid at 10.0 µM in the Eurofins Panlabs Safety Screen; settings: Compound concentration 10.0 uM
[5] = target: Tyrosine-protein kinase SYK (Homo sapiens) (UniProt P43405); experiment: Inhibition of Syk(h) at 10.0 µM in the Eurofins Kinase panel; settings: Compound concentration 10.0 uM
[6] = target: Sodium-dependent noradrenaline transporter (Homo sapiens) (UniProt P23975); experiment: Inhibition of Transporter, Norepinephrine (NET) at 10.0 µM in the Eurofins Panlabs Safety Screen; settings: Compound concentration 10.0 uM
[7] = target: Adenosine Transporter (Cavia porcellus) (UniProt H0V4R7+H0UUG1+H0V3Z5); experiment: Inhibition of Transporter, Adenosine at 10.0 µM in the Eurofins Panlabs Safety Screen; format: protein assay; settings: Compound concentration 10.0 uM
[8] = target: B2 bradykinin receptor (Homo sapiens) (UniProt P30411); experiment: Inhibition of Bradykinin B2 at 10.0 µM in the Eurofins Panlabs Safety Screen; settings: Compound concentration 10.0 uM
[9] = target: Prostaglandin G/H synthase 1 (Homo sapiens) (UniProt P23219); experiment: Inhibition of Cyclooxygenase COX-1 at 10.0 µM in the Eurofins Panlabs Safety Screen; settings: Compound concentration 10.0 uM
[10] = target: Neuronal acetylcholine receptor; alpha3/beta4 (Homo sapiens) (UniProt P30926+P32297); experiment: Inhibition of Nicotinic Acetylcholine alpha3beta4 at 10.0 µM in the Eurofins Panlabs Safety Screen; format: protein-complex assay; settings: Compound concentration 10.0 uM
Histamine H3 receptor [11] = target: T1, Histamine H3 receptor (Homo sapiens, UniProt Q9Y5N1); settings: Compound concentration 10.0 uM
[12] = target: T2, Muscarinic acetylcholine receptor M1 (Homo sapiens) (UniProt P11229); experiment: Inhibition of Muscarinic M1 at 10.0 µM in the Eurofins Panlabs Safety Screen; settings: Compound concentration 10.0 uM
T2 sequence (whole entry): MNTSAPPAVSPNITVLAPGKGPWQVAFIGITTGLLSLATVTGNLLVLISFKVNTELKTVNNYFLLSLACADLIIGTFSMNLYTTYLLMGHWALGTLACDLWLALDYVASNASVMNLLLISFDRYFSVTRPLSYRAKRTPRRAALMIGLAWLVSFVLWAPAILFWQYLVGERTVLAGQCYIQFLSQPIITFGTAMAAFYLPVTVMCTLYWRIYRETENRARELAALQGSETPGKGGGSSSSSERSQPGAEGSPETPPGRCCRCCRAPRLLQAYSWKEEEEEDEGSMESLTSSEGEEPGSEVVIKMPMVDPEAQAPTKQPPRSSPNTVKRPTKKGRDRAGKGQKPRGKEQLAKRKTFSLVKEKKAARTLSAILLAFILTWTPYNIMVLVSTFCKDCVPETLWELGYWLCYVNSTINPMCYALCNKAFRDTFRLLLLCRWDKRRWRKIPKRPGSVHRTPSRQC

[13] = target: T3, Methionine aminopeptidase 2 (Homo sapiens, UniProt P50579); experiment: Degradation in HUVEC cells (WB) (Western Blot (WB)); format: functional, cell-based
Histamine H3 receptor [14] = target: T1, Histamine H3 receptor; experiment: Inhibition of Histamine H3 at 10.0 µM in the Eurofins Panlabs Safety Screen; settings: Compound concentration 10.0 uM
[15] = target: T3, Methionine aminopeptidase 2; experiment: Degradation in HT1080 cells (CE) (Capillary electrophoresis (CE)); format: functional, cell-based; settings: ht-1080
[16] = target: T4, Alpha-2B adrenergic receptor (Homo sapiens) (UniProt P18089); settings: Compound concentration 10.0 uM
T4 sequence (whole entry): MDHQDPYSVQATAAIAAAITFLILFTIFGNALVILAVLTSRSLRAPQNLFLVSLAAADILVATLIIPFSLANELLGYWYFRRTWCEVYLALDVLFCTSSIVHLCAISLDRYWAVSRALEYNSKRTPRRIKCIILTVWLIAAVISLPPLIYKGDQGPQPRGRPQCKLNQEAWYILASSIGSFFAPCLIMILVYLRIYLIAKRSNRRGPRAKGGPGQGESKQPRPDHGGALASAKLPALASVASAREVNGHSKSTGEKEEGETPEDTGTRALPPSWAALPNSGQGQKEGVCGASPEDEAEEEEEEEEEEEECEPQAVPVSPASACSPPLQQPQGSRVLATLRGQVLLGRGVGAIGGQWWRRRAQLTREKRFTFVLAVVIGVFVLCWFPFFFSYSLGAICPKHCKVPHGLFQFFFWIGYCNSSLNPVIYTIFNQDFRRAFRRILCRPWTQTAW

[17] = target: Glutamate receptor ionotropic, kainate 2 (Homo sapiens) (UniProt Q13002); experiment: Inhibition of Glutamate, Kainate at 10.0 µM in the Eurofins Panlabs Safety Screen; settings: Rattus norvegicus; Compound concentration 10.0 uM
[18] = target: T5, Muscarinic acetylcholine receptor M4 (Homo sapiens) (UniProt P08173); settings: Compound concentration 10.0 uM
T5 sequence (whole entry): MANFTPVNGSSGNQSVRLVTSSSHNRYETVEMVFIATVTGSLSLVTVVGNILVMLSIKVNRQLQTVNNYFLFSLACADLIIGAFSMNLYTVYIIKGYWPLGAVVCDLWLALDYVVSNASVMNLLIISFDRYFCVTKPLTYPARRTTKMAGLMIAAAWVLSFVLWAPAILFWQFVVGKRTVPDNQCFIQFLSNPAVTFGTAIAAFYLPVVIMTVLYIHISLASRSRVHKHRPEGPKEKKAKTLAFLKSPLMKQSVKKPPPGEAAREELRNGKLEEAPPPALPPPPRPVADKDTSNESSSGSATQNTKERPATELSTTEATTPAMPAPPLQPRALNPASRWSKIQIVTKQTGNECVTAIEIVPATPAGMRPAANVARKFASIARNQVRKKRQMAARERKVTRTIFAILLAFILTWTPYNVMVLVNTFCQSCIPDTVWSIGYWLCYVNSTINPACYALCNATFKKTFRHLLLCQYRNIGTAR

[19] = target: Motilin receptor (Homo sapiens) (UniProt O43193); experiment: Inhibition of Motilin at 10.0 µM in the Eurofins Panlabs Safety Screen; settings: Compound concentration 10.0 uM
[20] = target: Tyrosine-protein kinase Blk (Homo sapiens) (UniProt P51451); experiment: Inhibition of Blk(h) at 10.0 µM in the Eurofins Kinase panel; settings: Compound concentration 10.0 uM
Histamine H3 receptor [21] = target: T1, Histamine H3 receptor; experiment: GPCRScan assay: inhibition of H3; set-up: radioligand conc. used [nm] 0.5 – 1.0, parental cells HEK Flp-In
[22] = target: Sigma intracellular receptor 2 (Homo sapiens, UniProt Q5BJF2); settings: Compound concentration 10.0 uM
Sigma intracellular receptor 2, sequence (Q5BJF2 whole entry): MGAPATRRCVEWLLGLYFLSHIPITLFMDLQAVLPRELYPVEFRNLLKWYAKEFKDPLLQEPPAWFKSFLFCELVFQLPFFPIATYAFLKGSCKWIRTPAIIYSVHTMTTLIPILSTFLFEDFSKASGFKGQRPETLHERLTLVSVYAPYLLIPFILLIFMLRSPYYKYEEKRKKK

T3 sequence (P50579 whole entry): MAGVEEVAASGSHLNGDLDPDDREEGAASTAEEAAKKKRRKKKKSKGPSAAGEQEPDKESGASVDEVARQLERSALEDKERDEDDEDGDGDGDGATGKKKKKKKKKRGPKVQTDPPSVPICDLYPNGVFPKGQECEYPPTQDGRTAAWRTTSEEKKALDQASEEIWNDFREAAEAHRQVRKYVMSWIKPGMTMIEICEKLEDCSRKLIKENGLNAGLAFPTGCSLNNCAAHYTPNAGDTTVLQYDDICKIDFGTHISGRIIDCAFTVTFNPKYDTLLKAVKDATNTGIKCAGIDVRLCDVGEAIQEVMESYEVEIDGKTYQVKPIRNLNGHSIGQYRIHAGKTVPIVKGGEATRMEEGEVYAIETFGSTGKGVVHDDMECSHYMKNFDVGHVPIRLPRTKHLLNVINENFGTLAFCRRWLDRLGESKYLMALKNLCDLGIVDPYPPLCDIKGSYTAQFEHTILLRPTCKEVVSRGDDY
T1 sequence (Q9Y5N1 whole entry): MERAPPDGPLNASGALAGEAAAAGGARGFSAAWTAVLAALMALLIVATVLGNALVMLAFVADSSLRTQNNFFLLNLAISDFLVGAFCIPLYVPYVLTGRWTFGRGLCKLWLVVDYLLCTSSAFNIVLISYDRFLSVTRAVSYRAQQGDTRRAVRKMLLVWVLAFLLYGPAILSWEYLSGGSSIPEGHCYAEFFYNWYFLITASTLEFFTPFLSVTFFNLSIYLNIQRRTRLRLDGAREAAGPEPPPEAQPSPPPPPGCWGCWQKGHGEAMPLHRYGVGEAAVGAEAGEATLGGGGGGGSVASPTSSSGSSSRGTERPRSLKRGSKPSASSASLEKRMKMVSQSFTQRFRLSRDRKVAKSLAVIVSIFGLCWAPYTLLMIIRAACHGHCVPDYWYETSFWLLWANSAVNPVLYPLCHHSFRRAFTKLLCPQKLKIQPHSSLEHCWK
B2 bradykinin receptor (Homo sapiens), sequence (P30411 whole entry): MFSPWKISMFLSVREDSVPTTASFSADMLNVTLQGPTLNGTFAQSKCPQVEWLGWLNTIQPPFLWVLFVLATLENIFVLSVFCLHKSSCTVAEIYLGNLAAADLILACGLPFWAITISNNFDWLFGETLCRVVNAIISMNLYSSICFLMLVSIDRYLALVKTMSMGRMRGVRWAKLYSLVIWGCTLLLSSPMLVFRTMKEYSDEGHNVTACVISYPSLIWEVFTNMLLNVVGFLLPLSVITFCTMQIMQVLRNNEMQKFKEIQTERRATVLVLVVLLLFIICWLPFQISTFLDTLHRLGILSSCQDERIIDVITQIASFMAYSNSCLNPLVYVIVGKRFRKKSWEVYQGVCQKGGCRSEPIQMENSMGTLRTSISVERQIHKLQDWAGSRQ
Dual specificity protein kinase CLK1 (Homo sapiens), sequence (P49759 whole entry, looked up): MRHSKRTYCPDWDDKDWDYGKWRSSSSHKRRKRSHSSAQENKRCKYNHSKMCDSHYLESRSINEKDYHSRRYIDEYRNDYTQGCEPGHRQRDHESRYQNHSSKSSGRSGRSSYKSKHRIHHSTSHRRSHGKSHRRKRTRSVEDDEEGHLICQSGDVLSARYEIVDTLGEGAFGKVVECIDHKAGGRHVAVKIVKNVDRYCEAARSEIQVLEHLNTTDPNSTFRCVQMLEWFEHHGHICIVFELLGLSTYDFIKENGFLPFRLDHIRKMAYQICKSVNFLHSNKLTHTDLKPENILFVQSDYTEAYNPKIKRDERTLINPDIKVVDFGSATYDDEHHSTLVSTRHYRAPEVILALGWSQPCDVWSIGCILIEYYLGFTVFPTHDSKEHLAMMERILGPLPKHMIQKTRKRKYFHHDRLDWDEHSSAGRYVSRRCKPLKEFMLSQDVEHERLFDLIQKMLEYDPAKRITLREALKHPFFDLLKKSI
Tyrosine-protein kinase Blk (Homo sapiens), sequence (P51451 2-505 limits assumed): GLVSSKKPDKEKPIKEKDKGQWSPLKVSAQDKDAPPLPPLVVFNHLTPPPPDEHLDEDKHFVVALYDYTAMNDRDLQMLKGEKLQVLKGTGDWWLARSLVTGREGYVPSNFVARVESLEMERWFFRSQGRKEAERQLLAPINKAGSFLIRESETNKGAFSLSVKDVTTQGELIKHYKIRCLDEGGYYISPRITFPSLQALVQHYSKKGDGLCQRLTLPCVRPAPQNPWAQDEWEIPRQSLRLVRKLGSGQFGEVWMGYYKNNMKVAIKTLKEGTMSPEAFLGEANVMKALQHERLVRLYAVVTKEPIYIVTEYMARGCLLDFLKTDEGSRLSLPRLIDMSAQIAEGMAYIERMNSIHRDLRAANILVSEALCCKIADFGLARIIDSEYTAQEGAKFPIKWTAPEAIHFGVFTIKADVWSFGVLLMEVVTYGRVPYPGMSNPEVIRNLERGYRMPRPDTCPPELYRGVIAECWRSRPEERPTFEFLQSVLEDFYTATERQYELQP
Prostaglandin G/H synthase 1 (Homo sapiens), sequence (P23219 whole entry): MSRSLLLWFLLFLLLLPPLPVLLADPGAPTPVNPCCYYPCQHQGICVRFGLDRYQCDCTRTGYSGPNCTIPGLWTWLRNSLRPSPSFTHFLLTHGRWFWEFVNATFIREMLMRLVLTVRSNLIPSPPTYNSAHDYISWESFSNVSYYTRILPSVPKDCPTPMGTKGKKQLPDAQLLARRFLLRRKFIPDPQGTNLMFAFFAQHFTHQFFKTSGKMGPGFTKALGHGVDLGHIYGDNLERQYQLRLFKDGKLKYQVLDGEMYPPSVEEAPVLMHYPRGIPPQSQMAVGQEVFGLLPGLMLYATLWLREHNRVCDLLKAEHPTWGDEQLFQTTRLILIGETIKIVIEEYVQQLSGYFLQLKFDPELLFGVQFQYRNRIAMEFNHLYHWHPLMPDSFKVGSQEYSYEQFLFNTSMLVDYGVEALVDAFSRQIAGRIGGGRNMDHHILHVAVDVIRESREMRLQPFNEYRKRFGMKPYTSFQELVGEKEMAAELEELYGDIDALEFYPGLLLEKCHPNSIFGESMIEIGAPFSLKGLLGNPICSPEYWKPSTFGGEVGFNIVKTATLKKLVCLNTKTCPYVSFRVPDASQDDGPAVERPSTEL
Glutamate receptor ionotropic, kainate 2 (Homo sapiens), sequence (Q13002 whole entry): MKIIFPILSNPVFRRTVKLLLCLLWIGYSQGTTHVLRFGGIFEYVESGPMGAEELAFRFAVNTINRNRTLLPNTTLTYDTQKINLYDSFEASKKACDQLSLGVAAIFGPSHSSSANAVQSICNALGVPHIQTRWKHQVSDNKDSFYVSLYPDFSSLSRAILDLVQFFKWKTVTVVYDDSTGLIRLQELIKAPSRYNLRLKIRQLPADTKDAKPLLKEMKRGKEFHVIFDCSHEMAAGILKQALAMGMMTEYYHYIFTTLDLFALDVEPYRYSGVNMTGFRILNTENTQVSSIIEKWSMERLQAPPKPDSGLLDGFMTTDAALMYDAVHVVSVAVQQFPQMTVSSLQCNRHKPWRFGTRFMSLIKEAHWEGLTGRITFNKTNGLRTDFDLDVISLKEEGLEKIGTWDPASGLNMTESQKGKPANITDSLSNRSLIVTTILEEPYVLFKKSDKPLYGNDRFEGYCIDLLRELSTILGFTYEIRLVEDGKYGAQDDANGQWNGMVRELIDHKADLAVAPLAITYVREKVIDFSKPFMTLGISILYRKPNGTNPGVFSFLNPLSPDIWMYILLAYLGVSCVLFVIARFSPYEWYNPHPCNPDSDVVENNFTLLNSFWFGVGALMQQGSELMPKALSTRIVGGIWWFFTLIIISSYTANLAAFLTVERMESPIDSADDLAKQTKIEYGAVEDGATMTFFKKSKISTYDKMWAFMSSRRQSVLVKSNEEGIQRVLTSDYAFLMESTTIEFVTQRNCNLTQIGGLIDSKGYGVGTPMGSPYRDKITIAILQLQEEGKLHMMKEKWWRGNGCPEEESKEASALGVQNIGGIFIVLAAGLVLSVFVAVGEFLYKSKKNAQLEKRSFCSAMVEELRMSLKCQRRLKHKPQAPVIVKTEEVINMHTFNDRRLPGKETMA
Motilin receptor (Homo sapiens), sequence (O43193 whole entry): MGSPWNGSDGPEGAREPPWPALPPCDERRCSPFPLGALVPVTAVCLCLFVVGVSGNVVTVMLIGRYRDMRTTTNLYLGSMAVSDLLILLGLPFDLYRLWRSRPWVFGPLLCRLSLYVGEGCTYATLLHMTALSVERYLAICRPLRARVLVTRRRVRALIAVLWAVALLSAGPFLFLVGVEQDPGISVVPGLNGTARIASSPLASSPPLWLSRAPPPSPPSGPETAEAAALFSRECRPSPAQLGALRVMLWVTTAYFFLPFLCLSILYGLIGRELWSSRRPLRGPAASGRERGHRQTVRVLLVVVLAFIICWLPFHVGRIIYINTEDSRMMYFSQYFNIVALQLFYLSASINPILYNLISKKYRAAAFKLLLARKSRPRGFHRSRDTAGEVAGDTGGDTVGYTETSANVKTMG

O=C1NCCCC1N1Cc2cc(C3CCN(C(=O)CCCCCN4CCC(c5ccc(Oc6nn7cnnc7c7c6CCCC7)cc5)CC4)CC3)ccc2C1=O (stereo unspecified)
inhibition [1]: 3%
inhibition [2]: 16.7%
inhibition [3]: 6%
inhibition [4]: 20%
inhibition [5]: 20.4%
inhibition [6]: 15%
inhibition [7]: 44%
inhibition [8]: 13%
inhibition [9]: 21%
inhibition [10]: 6%
inhibition (Histamine H3 receptor [11]): 91.5%
inhibition [12]: 53%
DC50 [13]: > 0.1 µM (not active)
inhibition (Histamine H3 receptor [14]): 85%
DC50 [15]: > 1 µM (not active)
inhibition [16]: 8.66%
inhibition [17]: 1%
inhibition [18]: 76.1%
inhibition [19]: 10%
inhibition [20]: 26.1%
Ki (Histamine H3 receptor [21]; read-out: Ki): 0.0732 µM
Ki (Histamine H3 receptor [21]; read-out: pKi (converted)): 0.0724 µM
inhibition [22]: 76.4%

O=C1CCC(N2Cc3cc(C4CCN(C(=O)CCCCCN5CCC(c6ccc(Oc7nn8cnnc8c8c7CCCC8)cc6)CC5)CC4)ccc3C2=O)C(=O)N1 (stereo unspecified)
inhibition [1]: 0%
inhibition [2]: 13.9%
inhibition [3]: 6%
inhibition [4]: 13%
inhibition [5]: 25%
inhibition [6]: 28%
inhibition [7]: 40%
inhibition [8]: 10%
inhibition [9]: 16%
inhibition [10]: 24%
inhibition (Histamine H3 receptor [11]): 100%
inhibition [12]: 53%
DC50 [13]: 0.0002 µM (active)
inhibition (Histamine H3 receptor [14]): 81%
DC50 [15]: 0.00893 µM (active)
inhibition [16]: 8.76%
inhibition [17]: -2%
inhibition [18]: 83.5%
inhibition [19]: 6%
inhibition [20]: 13.9%
Ki (Histamine H3 receptor [21]; read-out: Ki): 0.0728 µM
Ki (Histamine H3 receptor [21]; read-out: pKi (converted)): 0.0708 µM
inhibition [22]: 75.9%
